Laboratory results taken from patent US20140249147A1, “Substituted Bicyclic Aza-Heterocycles and Analogues as Sirtuin Modulators” (GlaxoSmithKline, LLC, priority 2011, published 2014).

Tests used:
SIRT1 [1] = molecular target: T1, SIRT1 (Homo sapiens, UniProt Q96EB6); assay: Trp mass spectrometry assay of SIRT1 activation; type: biochemical; conditions: Trp peptide substrate; for TYP EC1.5 (μM): concentration giving 150% activation of SIRT1; for TYP % Fold Act: percent maximum fold activation relative to control (100%)
T1 sequence (Q96EB6 1-747): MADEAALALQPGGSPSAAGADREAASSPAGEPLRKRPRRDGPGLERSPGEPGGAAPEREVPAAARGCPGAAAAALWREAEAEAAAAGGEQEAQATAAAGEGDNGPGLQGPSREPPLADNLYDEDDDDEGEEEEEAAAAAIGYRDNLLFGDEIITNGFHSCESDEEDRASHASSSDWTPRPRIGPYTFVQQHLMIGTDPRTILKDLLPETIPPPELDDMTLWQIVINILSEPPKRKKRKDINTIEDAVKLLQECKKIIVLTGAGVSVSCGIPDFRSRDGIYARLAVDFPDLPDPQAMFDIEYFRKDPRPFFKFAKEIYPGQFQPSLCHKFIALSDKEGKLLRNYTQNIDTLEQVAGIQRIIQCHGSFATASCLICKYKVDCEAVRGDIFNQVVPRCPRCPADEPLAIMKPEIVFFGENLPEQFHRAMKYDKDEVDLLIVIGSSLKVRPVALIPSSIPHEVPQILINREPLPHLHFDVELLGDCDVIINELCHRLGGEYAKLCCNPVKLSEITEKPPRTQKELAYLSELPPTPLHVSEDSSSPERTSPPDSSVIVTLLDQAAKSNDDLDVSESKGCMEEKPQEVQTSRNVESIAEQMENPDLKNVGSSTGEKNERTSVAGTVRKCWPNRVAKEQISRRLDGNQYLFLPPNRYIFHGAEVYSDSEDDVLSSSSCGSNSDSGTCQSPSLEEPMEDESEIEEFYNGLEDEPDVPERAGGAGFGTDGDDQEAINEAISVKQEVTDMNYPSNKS
Excerpt: (§1) Mass spectrometry based assays were used to identify modulators of SIRT1 activity. The TAMRA based assay utilized a peptide having 20 amino acid residues as follows: Ac-EE-K(biotin)-GQSTSSHSK(Ac)NleSTEG-K(5TMR)-EE-NH2 (SEQ ID NO: 1), wherein K(Ac) is an acetylated lysine residue and Nle is a norleucine. The peptide was labeled with the fluorophore 5TMR (excitation 540 nm/emission 580 nm) at the C-terminus. The sequence of the peptide substrate was based on p53 with several modifications. In addition, the methionine residue naturally present in the sequence was replaced with the norleucine because the methionine may be susceptible to oxidation during synthesis and purification. The Trp based assay utilized a peptide having an amino acid residues as follows: Ac—R—H—K—K(Ac)—W—NH2 (SEQ ID NO: 2).
The Trp mass spectrometry assay was conducted as follows. 0.5 μM peptide substrate and 120 μM βNAD^+ were incubated with 10 nM SIRT1 for 25 minutes at 25° C. in a reaction buffer (50 mM HEPES pH 7.5, […], 1 mM DTT, 0.05% BSA). The SIRT1 protein was obtained by cloning the SirT 1 gene into a T7-promoter containing vector, which was then expressed in BL21(DE3) bacterial cells and purified as described in further detail below. Test compound was added at varying concentrations to this reaction mixture and the resulting reactions were monitored. After the 25 minute incubation with SIRT1, 10 μL of 10% formic acid was added to stop the reaction. The resulting reactions were sealed and frozen for later mass spec analysis. The relative SIRT1 activity was then determined by measuring the amount of O-acetyl-ADP-ribose (OAADPR) formed (or, alternatively, the amount of deacetylated Trp peptide generated) by the NAD-dependent sirtuin deacetylation reaction in the presence of varying concentrations of the test compound versus control reactions lacking the test compound. The degree to which the test agent activated deacetylation by SIRT1 was expressed as EC1.5 (i.e., the concentration of compound required to increase SIRT1 activity by 50% over the control lacking test compound), and Percent Maximum Activation (i.e., the maximum activity relative to control (100%) obtained for the test compound).
(§2) A control for inhibition of sirtuin activity was conducted by adding 1 μL of 500 mM nicotinamide as a negative control at the start of the reaction (e.g., permits determination of maximum sirtuin inhibition). A control for activation of sirtuin activity was conducted using 10 nM of sirtuin protein, with 1 μL of DMSO in place of compound, to determine the amount of deacetylation of the substrate at a given time point within the linear range of the assay. This time point was the same as that used for test compounds and, within the linear range, the endpoint represents a change in velocity. For the above assay, SIRT1 protein was expressed and purified as follows. The SirT1 gene was cloned into a T7-promoter containing vector and transformed into BL21(DE3). The protein was expressed by induction with 1 mM IPTG as an N-terminal His-tag fusion protein at 18° C. overnight and harvested at 30,000×g. Cells were lysed with lysozyme in lysis buffer (50 mM Tris-HCl, 2 mM Tris[2-carboxyethyl]phosphine (TCEP), 10 μM ZnCl2, 200 mM NaCl) and further treated with sonication for 10 min for complete lysis. The protein was purified over a Ni-NTA column (Amersham) and fractions containing pure protein were pooled, concentrated and run over a sizing column (Sephadex S200 26/60 global). The peak containing soluble protein was collected and run on an Ion-exchange column (MonoQ). Gradient elution (200 mM-500 mM NaCl) yielded pure protein. This protein was concentrated and dialyzed against dialysis buffer (20 mM Tris-HCl, 2 mM TCEP) overnight. The protein was aliquoted and frozen at −80° C. until further use.
Sirtuin-modulating compounds of Formula (I) that activated SIRT1 were identified using the assay described above and are shown below in Table 1. […]

SIRT1 [2] = molecular target: T1, SIRT1; assay: TAMRA based mass spectrometry assay of SIRT1 activation; type: biochemical; conditions: TAMRA peptide substrate; for Emax: 25 min, percent maximum fold activation relative to control (100%), read-out: TAMRA % Fold Act; for TAMRA EC1.5 (μM): concentration giving 150% activation of SIRT1
Excerpt: as §1
The TAMRA based mass spectrometry assay was conducted as follows: 0.5 μM peptide substrate and 120 μM βNAD^+ was incubated with 10 nM SIRT1 for 25 minutes at 25° C. in a reaction buffer (50 mM Tris-acetate pH 8, 137 mM NaCl, 2.7 mM KCl, 1 mM MgCl2, 5 mM DTT, 0.05% BSA). The SIRT1 protein was obtained by cloning the SirT1 gene into a T7-promoter containing vector, which was then transformed and expressed in BL21(DE3) bacterial cells. Test compound was added at varying concentrations to this reaction mixture and the resulting reactions were monitored. After the 25 minute incubation with SIRT1, 10 μL of 10% formic acid was added to stop the reaction. The resulting reactions were sealed and frozen for later mass spec analysis. Determination of the amount of deacetylated substrate peptide formed (or, alternatively, the amount of O-acetyl-ADP-ribose (OAADPR) generated) by the sirtuin-mediated NAD-dependent deacetylation reaction allowed for the precise measurement of relative SIRT1 activity in the presence of varying concentrations of the test compound versus control reactions lacking the test compound.
as §2
Sirtuin-modulating compounds of Formula (I) that activated SIRT1 were identified using the assay described above and are shown below in Table 1. The EC1.5 values represent the concentration of test compounds that result in 150% activation of SIRT1. The EC1.5 values for the activating compounds of Formula (I) are represented by A (EC1.5<1 μM), B (EC1.5 1-25 μM), C (EC1.5>25 μM). […]

| Structure (SMILES) | TYP EC1.5 (μM) (SIRT1 [1]) | TYP % Fold Act (SIRT1 [1]) | Emax (SIRT1 [2]) [%] | TAMRA EC1.5 (μM) (SIRT1 [2]) |
| --- | --- | --- | --- | --- |
| O=C(Nc1nccs1)c1ccc2nnc(-c3cccc(OC(F)(F)F)c3)n2n1 [Compound 1, N-(thiazol-2-yl)-3-(3-(trifluoromethoxy)phenyl)-[1,2,4]triazolo[4,3-b]pyridazine-6-carboxamide] | B (EC1.5 1-25 μM) | B (Fold Activation <350%) | < 350 | C (EC1.5>25 μM) |
| O=C(Nc1ccccn1)c1ccc2nnc(-c3cccc(N4CCOCC4)c3)n2n1 [Compound 4] | C (EC1.5>25 μM) | B (Fold Activation <350%) | < 350 | C (EC1.5>25 μM) |
| O=C(Nc1nccs1)c1ccc2nnc(-c3cccc(N4CCOCC4)c3)n2n1 [Compound 5, 3-(3-morpholinophenyl)-N-(thiazol-2-yl)-[1,2,4]triazolo[4,3-b]pyridazine-6-carboxamide] | C (EC1.5>25 μM) | B (Fold Activation <350%) | < 350 | C (EC1.5>25 μM) |
| O=C(Nc1cccc(C(F)(F)F)n1)c1ccc2nnc(-c3cccc(Cl)c3)n2n1 [Compound 6] | – | B (Fold Activation <350%) | < 350 | – |
| Cc1cc(C)nc(NC(=O)c2ccc3nnc(-c4cccc(C(F)(F)F)c4)n3n2)c1 [Compound 8] | – | B (Fold Activation <350%) | < 350 | – |
| O=C(Nc1ccc2ncc(-c3cccc(C(F)(F)F)c3)n2n1)c1cnccn1 [Compound 14] | C (EC1.5>25 μM) | B (Fold Activation <350%) | < 350 | C (EC1.5>25 μM) |
| O=C(Nc1ccc2ncc(-c3ccccc3Cl)n2n1)c1cnccn1 [Compound 15] | C (EC1.5>25 μM) | B (Fold Activation <350%) | < 350 | C (EC1.5>25 μM) |
| O=C(Nc1ccc2ncc(-c3cccc(F)c3)n2n1)c1ncccn1 [Compound 16] | C (EC1.5>25 μM) | B (Fold Activation <350%) | < 350 | C (EC1.5>25 μM) |
| O=C(Nc1ccc2ncc(-c3cccc(C(F)(F)F)c3)n2n1)c1nccs1 [Compound 18] | C (EC1.5>25 μM) | B (Fold Activation <350%) | < 350 | C (EC1.5>25 μM) |
| O=C(Nc1ccnc(C(F)(F)F)c1)c1ccc2ncc(-c3cccc(Cl)c3)n2n1 [Compound 19] | C (EC1.5>25 μM) | B (Fold Activation <350%) | < 350 | B (EC1.5 1-25 μM) |
| O=C(Nc1cccc(C(F)(F)F)n1)c1ccc2ncc(-c3ccccc3Cl)n2n1 [Compound 21] | C (EC1.5>25 μM) | B (Fold Activation <350%) | < 350 | C (EC1.5>25 μM) |
| O=C(Nc1ccc2ncc(-c3ccccc3F)n2n1)c1nccs1 [Compound 22] | C (EC1.5>25 μM) | B (Fold Activation <350%) | < 350 | C (EC1.5>25 μM) |
| O=C(Nc1ccc2ncc(-c3ccccc3F)n2n1)c1ccccn1 [Compound 23] | C (EC1.5>25 μM) | B (Fold Activation <350%) | < 350 | C (EC1.5>25 μM) |
| O=C(Nc1cccc(N2CCOCC2)n1)c1ccc2ncc(-c3cccc(F)c3)n2n1 [Compound 38] | C (EC1.5>25 μM) | B (Fold Activation <350%) | < 350 | C (EC1.5>25 μM) |
| O=C(Nc1ccc2ncc(-c3cccc(C(F)(F)F)c3)n2n1)c1ncccn1 [Compound 39] | C (EC1.5>25 μM) | B (Fold Activation <350%) | – | – |
| O=C(Nc1cccc(N2CCOCC2)n1)c1ccc2ncc(-c3ccccc3Cl)n2n1 [Compound 44] | C (EC1.5>25 μM) | B (Fold Activation <350%) | < 350 | C (EC1.5>25 μM) |
| O=C(Nc1cccc(N2CCOCC2)n1)c1ccc2ncc(-c3cccc(C(F)(F)F)c3)n2n1 [Compound 48] | A (EC1.5<1 μM) | B (Fold Activation <350%) | ≥ 350 | A (EC1.5<1 μM) |
